Measured values as given in patent US8969332B2, “Aryloxy dihalopropenyl ether compounds and uses thereof” (Sinochem Corporation, priority 2011, dated 2015).

Assays:
armyworm = assay: Insecticidal activity against armyworm in greenhouse (airbrush spraying of corn leaf discs); type: in vivo; details: Mythimna separata, foliar, 72 h, parallel determination
Method: (§1) Compounds were dissolved in mixed solvent (acetone:methanol=1:1), and diluted to required concentration with water containing 0.1% of tweed 80.
(§2) The method of spraying by airbrush: The corn leaves were made into plates of 2 cm diameter by use of punch. A test solution (0.5 ml) was sprayed by airbrush at the pressure of 0.7 kg/cm^2 to both sides of every plate. 10 Second instar larvae were put into the Petri-dishes after the leaf disc air-dried and 3 replicates were set thr each treatment. Then the insects were maintained in observation room (25° C., 60˜70% R.H.). Scores were conducted and mortalities were calculated after 72 h.

beet armyworm [1] = assay: Insecticidal activity against beet armyworm (24 well-plate artificial diet emulsion method); type: in vivo; details: Spodoptera exigua, 72 h, read-out: Mortality of beet armyworm (%)
Method: as §1
24 well-plate artificial diet emulsion method: artificial food was added to each well of the 24 well-plate, after the artificial food was cooled, the prepared solution were added into the 24 well-plate according to the experimental design by order of chemical concentrations from low to high, by gently shaking the even emulsion film can be formed on the surface of the diet. 24 neat and healthy larvae were put into the 24 well-plate (one larvae each well) after the film was air-dried and 3 replicates were set for each treatment. Then the insects were maintained in observation room (25° C., 60˜70% R.H.). Scores were conducted and mortalities were calculated after 72 h.

beet armyworm [2] = assay: Field trial against beet armyworm on cabbage; type: in vivo, Laphygma exigua
Method: The trial was carried out in rain shelter area of experimental field of Wuhan vegetable research institute, the test crop is cabbage (variety: Jingfeng NO. 1). The dosage of the invention compound 1 (Example 11, 10% EC, same as below) are 75, 105, 150 g a.i./hm^2. and the comparative agent pyridalyl (10% EC, commercially available, same as below) is 105 g a.i./hm^2. The agent was applied on 9 Oct. 2011. The application tool is Linong 16HD-400 type backpack spray. Evenly spraying to whole cabbage which is in rosette stage was conducted. Beet armyworm is mainly larvae. The plot area is 25 m^2 and 4 replicates and randomized block arrangement were set. The amount of spray liquid is 750 L/hm^2. It was sunny and there was no wind, with the highest temperature of 28° C. and the lowest of 15° C. on the day of the application. Chosen 10 plants from each plot and scored the larvae at different instars at fixing time. The base number was investigated before treatment. The number of living larvae was counted after 1 day, 3 days, 7 days and 14 days respectively after application and control efficacy was calculated.
(§3) Calculation Method: Decrease rate of insects (%)=(the number of insects before application−the number of insects after application) the number of insects before application×100 Control efficacy (%)=(decrease rate of insects in treated area decrease rate of insects in blank comparative area)/(100−decrease rate of insects in blank comparative area)×100

[3] = tested on: cabbage butterfly (Pierisrapae Linne); assay: Field trial against cabbage butterfly; type: in vivo
Method: as §3
The trial was carried out in a farmer's vegetable field in Xiangcheng District Suzhou City. The variety of the cabbage is Xinxia 50. The dosage of the compound 1 are 75, 105, 150 g a.i./hm^2 and the comparative agent pyridalyl is 105 g a.i./hm^2. The agent was applied on 26 May 2011. The application tool is Singaporean Linong HD-400 type backpack spray. Evenly spraying to whole cabbage which is at vegetative growth phase was conducted, Cabbage butterfly is at a peak time of 1-3 instars of larvae. The plot area is 15 m^2, 4 replicates and randomized block arrangement were set. The amount of spray liquid is 750 L/hm^2. It was from sunny to cloudy with the highest temperature of 22.6° C., and the lowest of 17.8° C. on the day of the application of the spray. Chosen 10 plants from each plot and scored the larvae at different instars at fixing time. The base number was investigated before treatment. The number of living larvae was counted after 1 day, 4 days, 7 days and 12 days respectively after application and control efficacy was calculated.
Calculation method: the same as Example 13.

diamond back moth = assay: Insecticidal activity against diamond back moth in greenhouse (airbrush spraying of cabbage leaf discs); type: in vivo; details: Plutella xylostella, foliar, 72 h, parallel determination, read-out: Mortality of diamond back moth (%)
Method: as §1
as §2, with “cabbage” for “corn”, “petri-dishes” for “Petri-dishes”, “for” for “thr”, “R.H.),” for “R.H.).”

housefly = assay: Insecticidal activity against housefly (diet incorporation test); type: in vivo; details: Musca domestica, 72 h, 3rd instar larvae, read-out: Mortality of housefly (%)
Method: Diet Incorporation Tests: the test compound was dissolved with 90% acetone to obtain the mother liquor after weigh accurately with an electronic balance. The required concentration solution was got by diluting to the mother liquor with a certain concentration milk powder solution according to the designed doses in the experiment. Then, the diluted concentration solution was evenly put into the petri dishes with diameter of 6 cm inside which filter paper was placed by using a transferring-liquid gun ([…], solution each petri dish). Finally the 3rd instars of larvae were put into petri dishes with 10 each petri dish, and 3 replicates were set for each treatment. Then the insects were maintained in observation room (25° C., 60˜70% R.H.). Scores were conducted and mortalities were calculated after 72 h.

[4] = 75 g a.i./hm^2, 10% EC, 1 day after treatment
[5] = 105 g a.i./hm^2, 10% EC, 1 day after treatment
[6] = 150 g a.i./hm^2, 10% EC, 1 day after treatment

FC(F)(F)c1ccc(Oc2ccc(OCCCOc3c(Cl)cc(OCC=C(Cl)Cl)cc3Cl)cc2)nc1 [Compound 1]
mortality at 10 µg/mL (armyworm; 10 mg/L): 100% | mortality at 100 µg/mL (armyworm; 100 mg/L): 100% | mortality at 2.5 µg/mL (beet armyworm [1]; 2.5 mg/L): 47.8% | mortality at 10 µg/mL (beet armyworm [1]; 10 mg/L): 100% | Control efficiency (%) (beet armyworm [2]; [4]): 63.18% | Control efficiency (%) (beet armyworm [2]; 75 g a.i./hm^2, 10% EC, 3 days after treatment): 86.14% | Control efficiency (%) (beet armyworm [2]; 75 g a.i./hm^2, 10% EC, 7 days after treatment): 80.51% | Control efficiency (%) (beet armyworm [2]; 75 g a.i./hm^2, 10% EC, 14 days after treatment): 73.51% | Control efficiency (%) (beet armyworm [2]; [5]): 69.20% | Control efficiency (%) (beet armyworm [2]; 105 g a.i./hm^2, 10% EC, 3 days after treatment): 92.30% | Control efficiency (%) (beet armyworm [2]; 105 g a.i./hm^2, 10% EC, 7 days after treatment): 86.19% | Control efficiency (%) (beet armyworm [2]; 105 g a.i./hm^2, 10% EC, 14 days after treatment): 83.69% | Control efficiency (%) (beet armyworm [2]; [6]): 71.17% | Control efficiency (%) (beet armyworm [2]; 150 g a.i./hm^2, 10% EC, 3 days after treatment): 94.09% | Control efficiency (%) (beet armyworm [2]; 150 g a.i./hm^2, 10% EC, 7 days after treatment): 90.45% | Control efficiency (%) (beet armyworm [2]; 150 g a.i./hm^2, 10% EC, 14 days after treatment): 88.42% | Control efficiency (%) [3, 4]: 40.4% | Control efficiency (%) ([3]; 75 g a.i./hm^2, 10% EC, 4 day after treatment): 84.1% | Control efficiency (%) ([3]; 75 g a.i./hm^2, 10% EC, 7 day after treatment): 86.7% | Control efficiency (%) ([3]; 75 g a.i./hm^2, 10% EC, 12 days after treatment): 81.2% | Control efficiency (%) [3, 5]: 44.0% | Control efficiency (%) ([3]; 105 g a.i./hm^2, 10% EC, 4 day after treatment): 87.9% | Control efficiency (%) ([3]; 105 g a.i./hm^2, 10% EC, 7 day after treatment): 92.6% | Control efficiency (%) ([3]; 105 g a.i./hm^2, 10% EC, 12 days after treatment): 85.0% | Control efficiency (%) [3, 6]: 45.2% | Control efficiency (%) ([3]; 150 g a.i./hm^2, 10% EC, 4 day after treatment): 89.6% | Control efficiency (%) ([3]; 150 g a.i./hm^2, 10% EC, 7 day after treatment): 92.8% | Control efficiency (%) ([3]; 150 g a.i./hm^2, 10% EC, 12 days after treatment): 85.4% | mortality at 6.25 µg/mL (diamond back moth; 6.25 mg/L): 100% | mortality at 25 µg/mL (diamond back moth; 25 mg/L): 100% | mortality at 50 µg/mL (diamond back moth; 50 mg/L): 100% | mortality at 10 µg/mL (housefly; 10 mg/L): 66.7% | mortality at 20 µg/mL (housefly; 20 mg/L): 100%
